The values that follow come from patent publication US4005206A, “[9H]-Pyrido-[3,4-b]-indoles” (Roussel-UCLAF, priority 1976, dated 1977).

Molecules are shown by their SMILES. Converted amounts (≈) assume the structure as drawn. Structures can show the parent of a compound that is named as a salt.

In series [1] the test system is toxicity of the amphetamine group (dexamphetamine sulfate). Description: Antagonism toward amphetamine type (dexamphetamine-induced mortality). The class given is in vivo, male mice. The note with it: for ED50: Mus musculus, ip, i.p. one hour before 15 mg/kg i.p. dexamphetamine sulfate, mortality at 4 hours, male mice, read-out: DE50 (dose which reduced by 50% the number of dead animals); for antagonism with respect to the toxicity of the amphetamine group (in words): conclusion from Table I. As for the experimental part: 1. Antagonism toward amphetamine type
The antagonism of the compounds with regard to amphetaminic group was studied on groups of 10 male mice which received intraperitoneally 15 mg/kg of dexamphetamine sulfate one hour after the intraperitoneal administration of the test compound.
The mortality per group was totally counted 4 hours after the administration of dexamphetamine sulfate and the DE50 dose which reduced by 50% the number of dead animals was determined as shown in Table I.

The subject of the next series is amytal-induced sleep. Description: Potentialization of sleeping time (amytal). In kind it is in vivo, female mice. The note with it: for minimal effective dose: Mus musculus, ip, 1 h, i.p. one hour before 80 mg/kg i.v. amytal, female mice 18 to 22 g, 25° C, read-out: DE50 (minimum dose for significantly prolonging the duration of sleep); for neurosedative activity (in words): conclusion from Table II. As for the experimental part: 2. Potentialization of sleeping time
This test was effected with amytal (5-ethyl-5-isoamyl-barbituric acid) on groups of female mice weighing 18 to 22 g and held at 25° C for the duration of the test. The test products were administered intraperitoneally at different does one hour before the intravenous administration of 80 mg/kg of amytal and the time of sleep was recorded as the suspending time for the straighting reflex of the mice as negative.

Series [2] deals with serotonine-provoked contraction of guinea pig ileon. Description: Antiserotonine activity on isolated ileon. In kind it is cell-based. To be noted: for IC50: Cavia porcellus, isolated guinea pig ileon, Tyrode liquid 37° C, contact time one minute, read-out: IC50 (approximate 50% inhibiting concentration, contraction by serotonine). As for the experimental part:
Serotonine provokes contraction of a certain number of smooth muscles and especially guinea pig ileon and antiserotonine activity is determined in vitro on the isolated ileon of the guinea pig immersed in oxygenated Tyrode liquid at 37° C. The activity of the antagonist is measured by the concentration thereof which after a contact time of one minute diminishes by about 50% the contraction of a portion of ileon when a standard dose of serotonine is added to the Tyrode liquid. The approximate 50% inhibiting concentration (IC50) was determined in micrograms per ml and the results are in Table IV.

A short description of a further series: Acute toxicity. The note with it: mouse, in vivo, ip; intraperitoneal, mice, mortality 48 hours later; read-out: Approximate DL50 (50% lethal dose). As for the experimental part:
The 50% lethal dose (DL50) was determined by intraperitoneal administration of the products to mice and the mortality was determined 48 hours later.

Series [3] concerns platelet aggregation caused by collagen. Description: Platelet aggregation caused by collagen (turbidimetric method of Born). To be noted: for IC50: Oryctolagus cuniculus, rabbit platelet-rich plasma, 40 μg/ml collagen, read-out: IC50 (dose which inhibited by 50% the aggregation caused by collagen); for activity against platelet aggregation caused by collagen (in words): conclusion in words. In kind it is cell-based, rabbit. As for the experimental part: Platelet aggregation is effected with a Mustard aggregometer using the turbidimetric method of Born [J. Physiol., Vol. 168 (1963), p. 178-195] which consists of measuring the variation in transmission of a light ray or beam passing through a tube containing a plasma rich in platelets. When the aggregates are formed, the amount of light transmitted is greater and the optical density is diminished. The platelets used are obtained from rabbit plasma and the agent inducing the aggregation was 40 μg/ml of collagen. The 50% inhibiting concentration (IC50) was determined for each product which was the dose which inhibited by 50% the aggregation caused by collagen.

Series [4] has as its system rigidity provoked by reserpine. Description: Antagonism to reserpinic rigidity (electromyogram). In kind it is in vivo, rats. Also on record: key to Antagonism to reserpine rigidity: The results were expressed by an increasing number of + sign; ++: The results were expressed by an increasing number of + sign. The note with it: for Antagonism to reserpine rigidity: 20 mg/kg i.v., 30 minutes after 10 mg/kg i.v. reserpine, EMG, rats; for activity against reserpine rigidity (in words): dose of 20 mg/kg. As for the experimental part:
3. Antagonism to reserpinic rigidity
This test was effected on rats using the procedure of Jurna I. [Arch. Pharmak. Exp. Path., Vol. 260 (1968), p. 80-88] wherein the electromyogram (EMG) caused by a dorsiflexion due to the shock of the foot by electrodes placed against the muscles of the front portion of the rear paw of the animal. A dose of 10 mg/kg of reserpine was intravenously administered and then 30 minutes later when the hypertonicity of the muscle was the maximum, the test product was intravenously administered at a dose of 20 mg/kg. The inhibition was observed by the electromyogram showing the antagonism exercised by the test product against the rigidity provoked by reserpine.

Take `Clc1ccc2[nH]c3c(c2c1)CCNC3Cc1c[nH]c2ccccc12` (centres unmarked) [Example 7, 6-chloro-1-(3'-indolylmethyl)-1,2,3,4-tetrahydro-[9H]-pyrido-[3,4-b]-indole]: in series [1], the ED50 was found to be 20 mg/kg and the “antagonism with respect to the toxicity of the amphetamine group (in words)” value is given as “important antagonism”. Also, in the series on amytal-induced sleep, the minimal effective dose is 10 mg/kg and the “neurosedative activity (in words)” value is “very important neurosedative activity”. In addition, the IC50 in series [2] was in the range of 1 to 2 µg/mL (≈ 2.98 to 5.96 µM). Besides, the LD50 at 48 h in “Acute toxicity” was 150 mg/kg.

Take `Oc1ccc2[nH]cc(CC3NCCc4c3[nH]c3ccccc43)c2c1` (centres unmarked) [Example 9, 1-(5'-hydroxy-3'-indolyl-methyl)-1,2,3,4-tetrahydro-[9H]-pyrido-[3,4-b]-indole-hydrochloride]: the ED50 in series [1] came to 50 mg/kg. In addition, the IC50 in series [2] lay in the range of 0.1 to 0.2 µg/mL. Besides, the “antiserotonine activity (in words)” value in series [2] (conclusion in words) is listed as “important antiserotonine activity”. In series [3], the IC50 was 1 µM and the “activity against platelet aggregation caused by collagen (in words)” value is on record as “important activity”.

As to `COc1ccc2[nH]cc(CC3NCCc4c3[nH]c3ccc(O)cc43)c2c1` (centres unmarked) [Example 2, 1-(5'-methoxy-3'-indolyl-methyl)-6-hydroxy-1,2,3,4-tetrahydro[9H]-pyrido-[3,4-b]-indole], the minimal effective dose in the series on amytal-induced sleep stood at 50 mg/kg. Moreover, the IC50 in series [2] is 0.5 to 1 µg/mL (≈ 1.44 to 2.88 µM). Besides, the LD50 at 48 h in “Acute toxicity” was 200 mg/kg.

For the molecule `Oc1ccc2[nH]c3c(c2c1)CCNC3Cc1c[nH]c2ccccc12` (centres unmarked) [Example 6, 6-hydroxy-1-(3'-indolyl-methyl)-1,2,3,4-tetrahydro [9H]pyrido-[3,4-b]-indole-fumarate], in series [1], the ED50 was determined as 35 mg/kg and the “antagonism with respect to the toxicity of the amphetamine group (in words)” value is on record as “important antagonism”. Besides, the minimal effective dose in the series with amytal-induced sleep was 20 mg/kg. Also, the IC50 in series [2] stood at 2 µg/mL (≈ 6.3 µM). The “activity against platelet aggregation caused by collagen (in words)” value in series [3] is “important activity”. Besides, in “Acute toxicity”, the LD50 at 48 h was determined as 150 mg/kg.

Consider `COc1ccc2[nH]cc(CC3NCCc4c3[nH]c3ccc(OC)cc43)c2c1` (centres unmarked) [Example 1, 1-(5'-methoxy-3'-indolyl-methyl)-6-methoxy-1,2,3,4-tetrahydro[9H]-pyrido-[3,4-b]-indole-hydrochloride], for which, in the series with amytal-induced sleep, the minimal effective dose was determined as 10 mg/kg and the “neurosedative activity (in words)” value was “very important neurosedative activity”. Besides, in series [4], the “Antagonism to reserpine rigidity” value is “++” and the “activity against reserpine rigidity (in words)” value is on record as “very active”. In addition, the IC50 in series [2] was 0.5 µg/mL. Also, the LD50 at 48 h in “Acute toxicity” turned out to be 150 mg/kg.

For the molecule `COc1ccc2[nH]c3c(c2c1)CCNC3Cc1c[nH]c2ccccc12` (centres unmarked) [Example 3, 1-(3'-indolylmethyl)-6-methoxy-1,2,3,4-tetrahydro-[9H]-pyrido-[3,4-b]-indole hydrochloride], the “Antagonism to reserpine rigidity” value in series [4] is “+”. Also, in series [2], the IC50 was 1 µg/mL. The LD50 at 48 h in “Acute toxicity” stood at 350 mg/kg.

`Clc1ccc2[nH]cc(CC3NCCc4c3[nH]c3ccccc43)c2c1` (centres unmarked) [Example 4, 1-(5'-chloro-3'-indolyl-methyl)-1,2,3,4-tetrahydro-[9H]-pyrido-[3,4-b]-indole hydrochloride]: the minimal effective dose in the series on amytal-induced sleep was 50 mg/kg. Besides, in the series “Acute toxicity”, the LD50 at 48 h was 500 mg/kg.

Turning to `COc1ccc2[nH]cc(CC3NCCc4c3[nH]c3ccccc43)c2c1` (centres unmarked) [Example 5, 1-(5'-methoxy-3'-indolyl-methyl)-1,2,3,4-tetrahydro-[9H]pyrido-[3,4-b]-indole-hydrochloride], the minimal effective dose in the series with amytal-induced sleep was found to be 50 mg/kg. In addition, in series [4], the “Antagonism to reserpine rigidity” value is recorded as “++” and the “activity against reserpine rigidity (in words)” value is given as “very active”. In addition, the IC50 in series [2] was 2 µg/mL. Also, the IC50 in series [3] is approximately 100 µM. Also, in the series “Acute toxicity”, the LD50 at 48 h stood at 150 mg/kg.

Regarding `c1ccc(COc2ccc3[nH]cc(CC4NCCc5c4[nH]c4ccc(OCc6ccccc6)cc54)c3c2)cc1` (centres unmarked) [Example 10, 1-(5'-benzyloxy-3' -indolylmethyl)-6-benzyloxy-1,2,3,4-tetrahydro-[9H]-pyrido-[3,4-b]-indole-hydrochloride], in “Acute toxicity”, the LD50 at 48 h amounted to 300 mg/kg.
